Measured values as given in US11466016B2, “Pharmaceutical compounds” (priority 2018, dated 2022).
Structures can show the parent of a compound that is named as a salt.

What follows are compounds tested against SHP2 (Homo sapiens (Human), UniProt Q06124) (assay: SHP2 Biochemical Assay (DiFMUP conversion, pIRS1 activating peptide)). Conditions: not given.
Sequence of SHP2 (Q06124 whole entry): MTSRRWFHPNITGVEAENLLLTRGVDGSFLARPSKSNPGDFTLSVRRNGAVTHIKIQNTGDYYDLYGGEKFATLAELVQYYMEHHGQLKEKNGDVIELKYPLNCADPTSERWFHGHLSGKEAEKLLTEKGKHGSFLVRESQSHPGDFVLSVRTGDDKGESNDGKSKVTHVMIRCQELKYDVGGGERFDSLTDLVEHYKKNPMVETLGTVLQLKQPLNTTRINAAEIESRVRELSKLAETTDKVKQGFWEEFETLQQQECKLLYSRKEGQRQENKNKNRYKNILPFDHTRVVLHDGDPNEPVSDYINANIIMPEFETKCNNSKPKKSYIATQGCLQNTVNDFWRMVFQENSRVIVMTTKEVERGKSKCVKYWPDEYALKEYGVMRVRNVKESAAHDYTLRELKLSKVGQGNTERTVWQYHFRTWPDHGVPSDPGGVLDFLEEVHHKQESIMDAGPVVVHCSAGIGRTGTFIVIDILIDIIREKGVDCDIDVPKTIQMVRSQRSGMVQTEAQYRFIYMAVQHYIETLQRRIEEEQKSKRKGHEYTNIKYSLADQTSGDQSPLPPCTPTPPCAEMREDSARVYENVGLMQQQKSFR

Row | SMILES | IC50 [nM] | SHP2 (percent at stated concentration) [%@0.30 uM]
1 | Cc1nc2ccc(-c3n[nH]c4nc(N5[C@H]6CC[C@@H]5[C@@H](F)[C@@H](N)C6)c(CO)nc34)c(Cl)c2s1 [Example 98, {6-[(1R,2S,3S,5S)-3-amino-2-fluoro-8-azabicyclo[3.2.1]octan-8-yl]-3-(7-chloro-2-methyl-1,3-benzothiazol-6-yl)-1H-pyrazolo[3,4-b]pyrazin-5-yl}methanol] | 4 | –
2 | Cn1nc2ccc(-c3c[nH]c4nc(N5[C@H]6CC[C@@H]5[C@@H](F)[C@@H](N)C6)cnc34)c(Cl)c2c1Cl [Example 104, (1R,2S,3S,5S)-8-[7-(3,4-dichloro-2-methyl-2H-indazol-5-yl)-5H-pyrrolo[2,3-b]pyrazin-3-yl]-2-fluoro-8-azabicyclo[3.2.1]octan-3-amine, hydrochloride] | 9.5 | –
3 | COc1cnc2ccc(-c3c[nH]c4nc(N5[C@H]6CC[C@@H]5[C@@H](F)[C@@H](N)C6)cnc34)c(Cl)c2n1 [Example 106, (1R,2S,3S,5S)-8-[7-(5-chloro-3-methoxyquinoxalin-6-yl)-5H-pyrrolo[2,3-b]pyrazin-3-yl]-2-fluoro-8-azabicyclo[3.2.1]octan-3-amine, hydrochloride] | 22 | –
4 | Cn1nc2ccc(-c3n[nH]c4nc(N5[C@@H]6CC[C@H]5C[C@@H](O)C6)c(CO)nc34)c(Cl)c2c1Cl [Example 115, endo-8-[3-(3,4-dichloro-2-methyl-2H-indazol-5-yl)-5-(hydroxymethyl)-1H-pyrazolo[3,4-b]pyrazin-6-yl]-8-azabicyclo[3.2.1]octan-3-ol] | – | 50
5 | COc1cnc2ccc(-c3n[nH]c4nc(N5[C@@H]6CC[C@H]5[C@@H](F)[C@@H](N)C6)c(C)nc34)c(Cl)c2n1 [Example 121, (1S,2S,3S,5R)-8-[3-(5-chloro-3-methoxyquinoxalin-6-yl)-5-methyl-1H-pyrazolo[3,4-b]pyrazin-6-yl]-2-fluoro-8-azabicyclo[3.2.1]octan-3-amine] | 14 | –

Same assay, conditions: DiFMUP substrate, 0.25 μM pIRS1 peptide, 30 min pre-incubation; average where more than one data point; read-out: SHP2 (IC50)

Row | SMILES | IC50 [nM]
6 | COc1cnc2ccc(-c3n[nH]c4nc(N5[C@H]6CC[C@@H]5[C@@H](F)[C@@H](N)C6)c(C)nc34)c(Cl)c2n1 [Example 95, (1R,2S,3S,5S)-8-[3-(5-chloro-3-methoxyquinoxalin-6-yl)-5-methyl-1H-pyrazolo[3,4-b]pyrazin-6-yl]-2-fluoro-8-azabicyclo[3.2.1]octan-3-amine] | 3
7 | Cc1nc2c(-c3ccc4ncc(N(C)C)nc4c3Cl)n[nH]c2nc1N1[C@H]2CC[C@@H]1[C@@H](F)[C@@H](N)C2 [Example 96, 7-{6-[(1R,2S,3S,5S)-3-amino-2-fluoro-8-azabicyclo[3.2.1]octan-8-yl]-5-methyl-1H-pyrazolo[3,4-b]pyrazin-3-yl}-8-chloro-N,N-dimethylquinoxalin-2-amine] | 4.7
8 | COc1cc2c(Cl)c(-c3n[nH]c4nc(N5[C@H]6CC[C@@H]5[C@@H](F)[C@@H](N)C6)c(CO)nc34)ccc2nc1C [Example 100, {6-[(1R,2S,3S,5S)-3-amino-2-fluoro-8-azabicyclo[3.2.1]octan-8-yl]-3-(5-chloro-3-methoxy-2-methylquinolin-6-yl)-1H-pyrazolo[3,4-b]pyrazin-5-yl}methanol] | 12
9 | CC(C)n1cc2c(Cl)c(-c3n[nH]c4nc(N5[C@H]6CC[C@@H]5[C@@H](F)[C@@H](N)C6)c(CO)nc34)ccc2n1 [Example 101, {6-[(1R,2S,3S,5S)-3-amino-2-fluoro-8-azabicyclo[3.2.1]octan-8-yl]-3-[4-chloro-2-(propan-2-yl)-2H-indazol-5-yl]-1H-pyrazolo[3,4-b]pyrazin-5-yl}methanol] | 21
10 | Cn1nc2ccc(-c3n[nH]c4nc(N5[C@@H]6CC[C@H]5[C@H](F)[C@@H](N)C6)c(CO)nc34)c(Cl)c2c1Cl [Example 102, {6-[(1S,2R,3S,5R)-3-amino-2-fluoro-8-azabicyclo[3.2.1]octan-8-yl]-3-(3,4-dichloro-2-methyl-2H-indazol-5-yl)-1H-pyrazolo[3,4-b]pyrazin-5-yl}methanol] | 15
11 | CCn1nc2ccc(-c3n[nH]c4nc(N5[C@H]6CC[C@@H]5[C@@H](F)[C@@H](N)C6)c(CO)nc34)c(Cl)c2c1Cl [Example 103, {6-[(1R,2S,3S,5S)-3-amino-2-fluoro-8-azabicyclo[3.2.1]octan-8-yl]-3-(3,4-dichloro-2-ethyl-2H-indazol-5-yl)-1H-pyrazolo[3,4-b]pyrazin-5-yl}methanol] | 8.9
12 | Cn1nc2ccc(-c3n[nH]c4nc(N5[C@H]6CC[C@@H]5[C@@H](F)[C@@H](N)C6)c(CO)nc34)c(F)c2c1Br [Example 105, {6-[(1R,2S,3S,5S)-3-amino-2-fluoro-8-azabicyclo[3.2.1]octan-8-yl]-3-(3-bromo-4-fluoro-2-methyl-2H-indazol-5-yl)-1H-pyrazolo[3,4-b]pyrazin-5-yl}methanol] | 8.9
13 | COc1cnc2ccc(-c3c[nH]c4nc(N5[C@@H]6CC[C@H]5C[C@@H](N)C6)cnc34)c(Cl)c2n1 [Example 107, endo-8-[7-(5-chloro-3-methoxyquinoxalin-6-yl)-5H-pyrrolo[2,3-b]pyrazin-3-yl]-8-azabicyclo[3.2.1]octan-3-amine, hydrochloride] | 22
14 | Cc1c(-c2n[nH]c3nc(N4[C@H]5CC[C@@H]4[C@@H](F)[C@@H](N)C5)c(CO)nc23)ccc2nn(C)c(Cl)c12 [Example 108, {6-[(1R,2S,3S,5S)-3-amino-2-fluoro-8-azabicyclo[3.2.1]octan-8-yl]-3-(3-chloro-2,4-dimethyl-2H-indazol-5-yl)-1H-pyrazolo[3,4-b]pyrazin-5-yl}methanol] | 6.6
15 | COc1cnc2ccc(-c3n[nH]c4nc(N5[C@@H]6CC[C@H]5[C@@H](F)[C@@H](N)C6)c(CO)nc34)c(Cl)c2n1 [Example 109, {6-[(1S,2S,3S,5R)-3-amino-2-fluoro-8-azabicyclo[3.2.1]octan-8-yl]-3-(5-chloro-3-methoxyquinoxalin-6-yl)-1H-pyrazolo[3,4-b]pyrazin-5-yl}methanol] | 11
16 | Cn1nc2ccc(-c3n[nH]c4nc(N5CCC(C)(N)CC5)c(CO)nc34)c(Cl)c2c1Cl [Example 110, [6-(4-amino-4-methylpiperidin-1-yl)-3-(3,4-dichloro-2-methyl-2H-indazol-5-yl)-1H-pyrazolo[3,4-b]pyrazin-5-yl]methanol] | 7
17 | COc1cnc2ccc(-c3n[nH]c4nc(N5[C@@H]6CC[C@H]5CNC6)c(CO)nc34)c(Cl)c2n1 [Example 112, [3-(5-Chloro-3-methoxyquinoxalin-6-yl)-6-{3,8-diazabicyclo[3.2.1]octan-8-yl}-1H-pyrazolo[3,4-b]pyrazin-5-yl]methanol] | 12
18 | COc1cnc2ccc(-c3n[nH]c4nc(N5[C@@H]6CC[C@H]5C[C@@H](N)C6)c(CO)nc34)c(Cl)c2n1 [Example 113, {6-[endo-3-amino-8-azabicyclo[3.2.1]octan-8-yl]-3-(5-chloro-3-methoxyquinoxalin-6-yl)-1H-pyrazolo[3,4-b]pyrazin-5-yl}methanol] | 7.4
19 | N[C@H]1C[C@@H]2CC[C@H]([C@H]1F)N2c1nc2[nH]nc(-c3ccc4ncsc4c3Cl)c2nc1CO [Example 114, {6-[(1R,2S,3S,5S)-3-amino-2-fluoro-8-azabicyclo[3.2.1]octan-8-yl]-3-(7-chloro-1,3-benzothiazol-6-yl)-1H-pyrazolo[3,4-b]pyrazin-5-yl}methanol] | 3
20 | Cn1nc2ccc(-c3n[nH]c4nc(N5[C@@H]6CC[C@H]5C[C@@](C)(N)C6)c(CO)nc34)c(Cl)c2c1Cl [Example 116, {6-[endo-3-amino-3-methyl-8-azabicyclo[3.2.1]octan-8-yl]-3-(3,4-dichloro-2-methyl-2H-indazol-5-yl)-1H-pyrazolo[3,4-b]pyrazin-5-yl}methanol] | 7.5
21 | CN(C)c1cnc2ccc(-c3n[nH]c4nc(N5[C@H]6CC[C@@H]5[C@@H](F)[C@@H](N)C6)c(CO)nc34)c(Cl)c2n1 [Example 118, {6-[(1R,2S,3S,5S)-3-amino-2-fluoro-8-azabicyclo[3.2.1]octan-8-yl]-3-[5-chloro-3-(dimethylamino)quinoxalin-6-yl]-1H-pyrazolo[3,4-b]pyrazin-5-yl}methanol] | 5.3
22 | COc1cnc2ccc(-c3n[nH]c4nc(N5[C@@H]6CC[C@H]5CNC6)c(C)nc34)c(Cl)c2n1 [Example 119, 8-Chloro-7-(6-{3,8-diazabicyclo[3.2.1]octan-8-yl}-5-methyl-1H-pyrazolo[3,4-b]pyrazin-3-yl)-2-methoxyquinoxaline] | 14
23 | COc1cnc2ccc(-c3n[nH]c4nc(N5CCC(C)(N)CC5)c(C)nc34)c(Cl)c2n1 [Example 120, 1-[3-(5-chloro-3-methoxyquinoxalin-6-yl)-5-methyl-1H-pyrazolo[3,4-b]pyrazin-6-yl]-4-methylpiperidin-4-amine] | 25
24 | Cn1nc2ccc(-c3c[nH]c4nc(N5[C@H]6CC[C@@H]5[C@@H](F)[C@@H](N)C6)c(CO)nc34)c(Cl)c2c1Cl [Example 122, {3-[(1R,2S,3S,5S)-3-amino-2-fluoro-8-azabicyclo[3.2.1]octan-8-yl]-7-(3,4-dichloro-2-methyl-2H-indazol-5-yl)-5H-pyrrolo[2,3-b]pyrazin-2-yl}methanol] | 5.2
25 | Cc1nc2c(-c3ccc4nn(C)c(C#N)c4c3Cl)n[nH]c2nc1N1[C@H]2CC[C@@H]1[C@@H](F)[C@@H](N)C2 [Example 124, 5-{6-[(1R,2S,3S,5S)-3-amino-2-fluoro-8-azabicyclo[3.2.1]octan-8-yl]-5-methyl-1H-pyrazolo[3,4-b]pyrazin-3-yl}-4-chloro-2-methyl-2H-indazole-3-carbonitrile] | 8.1
26 | Cn1nc2ccc(-c3n[nH]c4nc(N5[C@@H]6CCC[C@H]5CNC6)c(CO)nc34)c(Cl)c2c1Cl [Example 125] | 7.1

Same assay, conditions: at 0.010 uM

Row | SMILES | SHP2 (percent at stated concentration) [%@0.010 uM]
27 | Cc1c2c(Cl)c(-c3n[nH]c4nc(N5[C@H]6CC[C@@H]5[C@@H](F)[C@@H](N)C6)c(CO)nc34)ccc2nn1C [Example 99, {6-[(1R,2S,3S,5S)-3-amino-2-fluoro-8-azabicyclo[3.2.1]octan-8-yl]-3-(4-chloro-2,3-dimethyl-2H-indazol-5-yl)-1H-pyrazolo[3,4-b]pyrazin-5-yl}methanol] | 45
